Laboratory results taken from patent US20100222322A1, “Non-Nucleoside Reverse Transcriptase Inhibitors” (MERCK & CO., INC., priority 2005, published 2010).
Read-outs that look alike come from different tables or passages of the source.

Test system: HIV replication in T-lymphoid cells
Test: Spread assay: inhibition of acute HIV infection of T-lymphoid cells
Type: cell-based
Settings: read-out: IC95, spread assay (inhibition of HIV replication)
Description: An assay for the inhibition of acute HIV infection of T-lymphoid cells (alternatively referred to herein as the “spread assay”) was conducted in accordance with Vacca, J. P. et al., Proc. Natl. Acad. Sci. USA 1994, 91: 4096. […] The compounds of Examples 26, 29, 30, 33-35 and 62 were tested in the spread assay up to 10 micromolar, but specific IC95 values were not obtained; i.e., the IC95 values were greater than 10 micromolar. The compounds of Examples 47 and 61 were not tested.

[1] = Human immunodeficiency virus 1, acute HIV infection of T-lymphoid cells, tested up to 10 micromolar
[2] = Human immunodeficiency virus 1, T-lymphoid

Row | Compound | IC95 [1] | IC95 [2]
1 | NS(=O)(=O)c1ccc(CNC(=O)c2[nH]c3ccc(Br)cc3c2S(=O)(=O)N2CCCC2)cc1 [Example 55, N-[4-(aminosulfonyl)benzyl]-5-bromo-3-(pyrrolidin-1-ylsulfonyl)-1H-indole-2-carboxamide] | < 1000 nM | –
2 | O=C(NCCO)c1[nH]c2ccc(Br)cc2c1S(=O)(=O)NC1CCCC1 [Example 35, 5-bromo-3-[(cyclopentylamino)sulfonyl]-N-(2-hydroxyethyl)-1H-indole-2-carboxamide] | > 10000 nM | –
3 | CCOC(=O)c1[nH]c2ccc(Br)cc2c1S(=O)(=O)NCCOC [Example 28, ethyl 5-bromo-3-{[(2-methoxyethyl)amino]sulfonyl}-1H-indole-2-carboxylate] | – | < 1000 nM
4 | O=C(NCCCn1ccnc1)c1[nH]c2ccc(Br)cc2c1S(=O)(=O)N1CCCC1 [Example 52, 5-bromo-N-[3-(1H-imidazol-1-yl)propyl]-3-(pyrrolidin-1-ylsulfonyl)-1H-indole-2-carboxamide] | < 1000 nM | –
5 | O=C1CN(S(=O)(=O)c2c(C(=O)NCCO)[nH]c3ccc(Br)cc23)CCN1 [Example 36, 5-bromo-N-(2-hydroxyethyl)-3-[(3-oxopiperazin-1-yl)sulfonyl]-1H-indole-2-carboxamide] | – | 1000 to 10000 nM
6 | O=C(NCc1ccon1)c1[nH]c2ccc(Br)cc2c1S(=O)(=O)N1CCCC1 [Example 58, 5-bromo-N-(isoxazol-3-ylmethyl)-3-(pyrrolidin-1-ylsulfonyl)-1H-indole-2-carboxamide] | < 1000 nM | –
7 | NC(=O)c1[nH]c2ccc(Cl)cc2c1S(=O)(=O)N1CCCC1C(F)(F)F (stereo not drawn) [Example 40, 5-chloro-3-{[2-(trifluoromethyl)pyrrolidin-1-yl]sulfonyl}-1H-indole-2-carboxamide] | < 1000 nM | –
8 | CCOC(=O)c1[nH]c2ccc(Br)cc2c1S(=O)(=O)N1CCCC1C(F)(F)F (stereo not drawn) [Example 30, ethyl 5-bromo-3-{[2-(trifluoromethyl)pyrrolidin-1-yl]sulfonyl}-1H-indole-2-carboxylate] | – | > 10000 nM
9 | COCCNC(=O)c1[nH]c2ccc(Br)cc2c1S(=O)(=O)N1CCCC1 [Example 56, 5-bromo-N-(2-methoxyethyl)-3-(pyrrolidin-1-ylsulfonyl)-1H-indole-2-carboxamide] | < 1000 nM | –
10 | O=C(NCCc1cnc[nH]1)c1[nH]c2ccc(Br)cc2c1S(=O)(=O)N1CCCC1 [Example 49, 5-bromo-N-[2-(1H-imidazol-5-yl)ethyl]-3-(pyrrolidin-1-ylsulfonyl)-1H-indole-2-carboxamide] | < 1000 nM | –
11 | NC(=O)c1[nH]c2ccc(Cl)cc2c1S(=O)(=O)N1CCC(F)CC1 [Example 46, 5-chloro-3-[(4-fluoropiperidin-1-yl)sulfonyl]-1H-indole-2-carboxamide] | < 1000 nM | –
12 | O=C(NCc1nc2cccnc2[nH]1)c1[nH]c2ccc(Br)cc2c1S(=O)(=O)N1CCCC1 [Example 63, 5-bromo-N-(3H-imidazo[4,5-b]pyridin-2-ylmethyl)-3-(pyrrolidin-1-ylsulfonyl)-1H-indole-2-carboxamide] | < 1000 nM | –
13 | COC(=O)c1[nH]c2ccc(Br)cc2c1S(=O)(=O)NC1CCCC1 [Example 26, methyl 5-bromo-3-[(cyclopentylamino)sulfonyl]-1H-indole-2-carboxylate] | – | > 10000 nM
14 | NC(=O)c1[nH]c2ccc(Cl)cc2c1S(=O)(=O)NC1CCC1 [Example 3, 5-chloro-3-[(cyclobutylamino)sulfonyl]-1H-indole-2-carboxamide] | < 1000 nM | –
15 | O=C(NCc1cscn1)c1[nH]c2ccc(Br)cc2c1S(=O)(=O)N1CCCC1 [Example 57, 5-bromo-3-(pyrrolidin-1-ylsulfonyl)-N-(1,3-thiazol-4-ylmethyl)-1H-indole-2-carboxamide] | < 1000 nM | –
16 | NC(=O)c1[nH]c2ccc(Cl)cc2c1S(=O)(=O)N1CCCC(F)C1 (stereo not drawn) [Example 41, 5-chloro-3-[(3-fluoropiperidin-1-yl)sulfonyl]-1H-indole-2-carboxamide] | < 1000 nM | –
17 | O=C(NCc1ccccn1)c1[nH]c2ccc(Br)cc2c1S(=O)(=O)N1CCCC1 [Example 54, 5-bromo-N-(pyridin-2-ylmethyl)-3-(pyrrolidin-1-ylsulfonyl)-1H-indole-2-carboxamide] | < 1000 nM | –
18 | NC(=O)c1[nH]c2ccc(-c3cccc4ncccc34)cc2c1S(=O)(=O)N1CCCC1 [Example 67, 3-(pyrrolidin-1-ylsulfonyl)-5-quinolin-5-yl-1H-indole-2-carboxamide] | < 1000 nM | –

Row | Compound | IC95 [1] | IC95 [2]
19 | NC(=O)c1[nH]c2ccc(Br)cc2c1S(=O)(=O)N1CCC(F)(F)CC1 [Example 43, 5-bromo-3-[(4,4-difluoropiperidin-1-yl)sulfonyl]-1H-indole-2-carboxamide] | < 1000 nM | –
20 | O=C(NCc1ncc(-c2ccccc2)[nH]1)c1[nH]c2ccc(Br)cc2c1S(=O)(=O)N1CCCC1 [Example 62, 5-bromo-N-[(5-phenyl-1H-imidazol-2-yl)methyl]-3-(pyrrolidin-1-ylsulfonyl)-1H-indole-2-carboxamide] | > 10000 nM | –
21 | CCOC(=O)c1[nH]c2ccc(Br)cc2c1S(=O)(=O)N1CCCCC1 [Example 27, ethyl 5-bromo-3-(piperidin-1-ylsulfonyl)-1H-indole-2-carboxylate] | – | 1000 to 10000 nM
22 | O=C(NCCO)c1[nH]c2ccc(Br)cc2c1S(=O)(=O)NC1CCCCC1 [Example 34, 5-bromo-3-[(cyclohexylamino)sulfonyl]-N-(2-hydroxyethyl)-1H-indole-2-carboxamide] | > 10000 nM | –
23 | COC1CCCN(S(=O)(=O)c2c(C(N)=O)[nH]c3ccc(Br)cc23)C1 (stereo not drawn) [Example 20, 5-bromo-3-[(3-methoxypiperidin-1-yl)sulfonyl]-1H-indole-2-carboxamide] | < 1000 nM | –
24 | O=C(NCc1cccnc1)c1[nH]c2ccc(Br)cc2c1S(=O)(=O)N1CCCC1 [Example 50, 5-bromo-N-(pyridin-3-ylmethyl)-3-(pyrrolidin-1-ylsulfonyl)-1H-indole-2-carboxamide] | < 1000 nM | –
25 | NC(=O)c1[nH]c2ccc(Br)cc2c1S(=O)(=O)N1CCC(F)C1 (stereo not drawn) [Example 22, 5-bromo-3-[(3-fluoropyrrolidin-1-yl)sulfonyl]-1H-indole-2-carboxamide] | < 1000 nM | –
26 | O=C(NCCO)c1[nH]c2ccc(Br)cc2c1S(=O)(=O)NC1CC1 [Example 33, 5-bromo-3-[(cyclopropylamino)sulfonyl]-N-(2-hydroxyethyl)-1H-indole-2-carboxamide] | > 10000 nM | –
27 | CCOC(=O)c1[nH]c2ccc(Br)cc2c1S(=O)(=O)NC1CCCC1 [Example 29, ethyl 5-bromo-3-[(cyclopentylamino)sulfonyl]-1H-indole-2-carboxylate] | – | > 10000 nM
28 | CCCNS(=O)(=O)c1c(C(N)=O)[nH]c2ccc(Br)cc12 [Example 23, 5-bromo-3-[(propylamino)sulfonyl]-1H-indole-2-carboxamide] | < 1000 nM | –
29 | COC(=O)c1[nH]c2ccc(Br)cc2c1S(=O)(=O)N1CCCCC1 [Example 24, methyl 5-bromo-3-(piperidin-1-ylsulfonyl)-1H-indole-2-carboxylate] | < 1000 nM | –
30 | COC(=O)c1[nH]c2ccc(Br)cc2c1S(=O)(=O)N1CCCC1 [Example 25, methyl 5-bromo-3-(pyrrolidin-1-ylsulfonyl)-1H-indole-2-carboxylate] | < 1000 nM | –
31 | C=Cc1ccc2[nH]c(C(N)=O)c(S(=O)(=O)N3CCCC3)c2c1 [Example 66, 3-(pyrrolidin-1-ylsulfonyl)-5-vinyl-1H-indole-2-carboxamide] | < 1000 nM | –
32 | CN1CCC(CNC(=O)c2[nH]c3ccc(Br)cc3c2S(=O)(=O)N2CCCC2)C1 (stereo not drawn) [Example 60, 5-bromo-N-[(1-methylpyrrolidin-3-yl)methyl]-3-(pyrrolidin-1-ylsulfonyl)-1H-indole-2-carboxamide] | < 1000 nM | –
33 | NC(=O)c1[nH]c2ccc(Br)cc2c1S(=O)(=O)N1CCC(F)CC1 [Example 45, 5-bromo-3-[(4-fluoropiperidin-1-yl)sulfonyl]-1H-indole-2-carboxamide] | < 1000 nM | –
34 | NC(=O)c1[nH]c2ccc(Cl)cc2c1S(=O)(=O)N1CCC1 [Example 7, 3-(azetidin-1-ylsulfonyl)-5-chloro-1H-indole-2-carboxamide] | < 1000 nM | –
35 | NC(=O)c1[nH]c2ccc(Br)cc2c1S(=O)(=O)NC1CCC1 [Example 44, 5-bromo-3-[(cyclobutylamino)sulfonyl]-1H-indole-2-carboxamide] | < 1000 nM | –
36 | NC(=O)c1[nH]c2ccc(Br)cc2c1S(=O)(=O)N1CCC(F)(F)C1 [Example 42, 5-bromo-3-[(3,3-difluoropyrrolidin-1-yl)sulfonyl]-1H-indole-2-carboxamide] | < 1000 nM | –
